≈ marks a conversion by molar mass, not a printed value. One block for each compound: values may come before it.
Tests used:
HT1080 cells (NRAS^Q61K) = test: Cell viability (CellTiterGlo), HT1080; assay type: cell-based, human; conditions: HT1080, 0–20 μM, up to 72 h
Procedure: (§1) Fig. 5 Abd-7 results on RAS-dependent signalling pathways and cell viability. a, b DLD-1 (a) or H358 (b) cells were serum-starved for 24 h, incubated in mono-layer with Abd-7 in a range from 2, 5, 10 and 20 μM for 3 h and stimulated with EGF 10 min. Proteins were extracted and separated by SDS-PAGE and transferred to membranes for Western analysis with anti-pAKT, anti-pERK, anti-pan AKT and anti-pan ERK. Anti-cyclophilin B antibody was the loading control. Signal was developed using standard ECL. c–e Effects of compounds Abd-2, Abd-4, Abd-5, Abd-6, and Abd-7 on the viability of human cancer cells lines was assessed for a 2-D culture of DLD-1 (mutant KRAS^G13D) cells and HT1080 cells (mutant NRAS^Q61K). The cells were treated with a dose range from 0 μM to 20 μ and incubated for 72 h when cell viability was assessed using CellTitreGlo. […] Each experiment was repeated at least three times (a, b) and four times (c, d). Where error bars are presented, they correspond to mean values ± SD of biological repeats […]
(§2) Cancer cell lines were in seeded in ViewPlates-96 microplates (PerkinElmer). DLD-1 cells were plated at 10,000 cells per well and HT1080 cells at 7500 cells per well and cultured in DMEM, high glucose, GlutaMAX media containing 10% FBS at 37 °C in 5% CO2 atmosphere. Cells were cultured overnight and the compounds (dissolved in DMSO and diluted to 0.2% DMSO) were added to the cells at concentrations ranging from 0 to 20 μM. The cells were incubated under standard culture conditions for either 24, 48 or 72 h. Cell viability was as quantitated using the CellTiterGlo Luminescent Cell Viability Assay (Promega) according to the manufacturer’s instructions to measure ATP generated by metabolically active cells. Luminescent signals were measured using an Envision 2103 Multilabel Microplate Reader (PerkinElmer). The luminescence signals obtained from the compound-treated cells were normalized against the signal for DMSO-only treated cells. The IC50 values, calculated from the 48 and 72 h CellTiterGlo data, were generated by non-linear regression using the software GraphPad Prism 7.00 for windows (GraphPad Inc).
(§3) Supplementary Figure 7: The effect of Abd compounds on the viability of cancer cells The effect of the chemical series on the viability of human cancer cells lines DLD -1 (a colorectal cancer cell line with mutant KRAS
(§4) ) and HT1080 (a fibrosarcoma cell line with
(§5) ). The cells were treated with a dose range from […] of either
(§6) Abd-2, Abd-4, Abd-5, Abd-6 and Abd-7 and incubated for 24 or 48 hours. Cell viability was assessed using CellTitreGlo . In each case, the data are normalized to cells treated with DMSO only. Panels a and b are DLD-1 viability and panels c and d are HT1080 viability.
(§7) The IC50 for Abd-7 at 48 & 72 […]
(§8) hours are shown in panel f. Each experiment was repeated at least four times ( a to d).
(§9) Where error bars are presented, they correspond to mean values ± SD of biological repeats.
(§10) (1 picture or pasted object on this page, not shown here)

DLD-1 cells (KRAS^G13D) = test: Cell viability (CellTiterGlo), DLD-1; assay type: cell-based, human; conditions: DLD-1, 0–20 μM, up to 72 h
Procedure: as §1, §2, §3, §4, §5, §6, §7, §8, §9, §10

RAS-effector PPI = test: RAS biosensor BRET assay (partners not specified); assay type: cell-based, human
Procedure: The BRET assay was carried out as described elsewhere. A total of 650,000 HEK293T were seeded in each well of a six well plate. Approximately, 24 h later, cells were transfected with an appropriated BRET-based RAS biosensor (i.e. RAS-effector) using Lipofectamine 2000 transfection reagent (Thermo-Fisher). Cells were detached 24 h later and washed with PBS and seeded in a white 96 well plate (clear bottom, PerkinElmer, cat#6005181) in OptiMEM no phenol red medium (Life Technologies) complemented with 4% FBS. Cells were left for 4 h at 37 °C before adding compounds. […] The final concentrations in the cells were 0, 5, 10 and 20 μM (therefore the intermediate 10X concentrations were 0, 50, 100 and 200 μM. Furthermore, 10 μl of 10X compounds were added in each well of the 96 well plate to 0, 5, 10 and 20 μM final concentrations (with final 0.2% DMSO each). Quadruplicates were performed for each point. Cells were left for an additional 20 h at 37 °C before the BRET2 signal reading directly after addition of Coelenterazine 400a substrate (10 μM final) to cells (Cayman Chemicals, cat#16157). BRET2 reading was carried out on an Envision instrument (2103 Multilabel Reader, PerkinElmer) with the BRET2 Dual Emission optical module (515 nm ± 30 and 410 nm ± 80; PerkinElmer).

KRAS^G12V-GppNHp = target: T1, KRAS^G12V-GppNHp (Homo sapiens, UniProt P01116, G12V); test: SPR binding to KRAS G12V-GppNHp; conditions: 100 μM, run in triplicate
T1 construct: made in house; host or cells: E. coli (pGEX-2T; strain named only for the HRAS plasmids)
Procedure: A BIAcore T100 (GE Healthcare) was used to screen the fragment library for RAS binders. A polyclonal goat anti-GST antibody (GE Healthcare) was immobilized on a CM5 sensor chip (GE Healthcare) by the amine coupling method. To immobilize the antibody on CM5 chip, the chip was first activated by injecting 100 µl mixture of 0.2 M EDC (N-ethyl-N-(dimethylaminopropyl) carbodiimide hydrochloride) and 0.05 M NHS (N-hydroxysuccinimide) at 10 µl/min flow rate. Furthermore, 100 µg/ml anti-GST antibody in 10 mM sodium acetate, pH 5.0 was injected at 5 µl/min for 900 s and immobilized until 20,000 ~ 25,000 RU. After immobilization the chip was immediately inactivated by injecting 1 M ethanolamine, pH 8.5 at 10 µl/min for 600 s. The chip was kept running in the HBS buffer (GE Healthcare) comprising 10 mM HEPES, pH 8.0, 150 mM NaCl. Of all, 5 µg/ml recombinant GST, GST-HRAS^G12V-GTPγS or GST-HRAS^G12V-GDP proteins were injected into flow cell Fc4, Fc2 and Fc3, respectively for trapping through the immobilized anti-GST antibody. The GST-HRAS^G12V-GTPγS, GST-KRAS^G12V-GppNHpp, or GST-HRAS^G12V-GDP proteins were injected at 5 µl/min for 900 s and usually reached approximately 2000–2500 RU. The GST was injected at same flow rate until about 1200–1350 RU which is 0.54 times less than the GST-HRAS^G12V-GTPγS or GST-HRAS-GDP capture amounts, taking into consideration relative molecular weights (GST, 26KDa, GST-RAS, 48KDa, respectively). Before fragment library screening, the running buffer was replaced by 20 mM Tris, pH 8, 150 mM NaCl, 5 mM MgCl2, 5% DMSO. DMSO solvent correction curves were generated by injecting the running buffers with serial concentrations of DMSO ranging from 4.5 to 6%. […] The individual compounds were injected at 30 µl for 60 s at 30 µl/min flow rate over flow cells Fc1, Fc2, Fc3 and Fc4. The captured GST and GST-RAS were removed from the chip by rinsing with 40 µl 10 mM glycine-HCl, pH 2.1 at 20 µl/min flow rate after every 48 compounds sequential injection. The chip was regenerated by injecting new GST and GST-RAS proteins as described above.

[1] = target: T2, GST-HRAS^G12V-GTPγS-anti-RAS single chain Fv (scFv) (Homo sapiens, UniProt P01112, G12V); test: Competitive SPR (cSPR) with anti-RAS scFv bound to HRAS; assay type: binding; conditions: 3 to 2000 μM range
T2 construct: expression of HRAS (1-166) HRAS^G12V or KRAS^G12V cDNA cloned into the pGEX-2T vector; made in house; host or cells: E. coli C41(DE3)
Procedure: For competitive SPR (cSPR) assays between anti-RAS scFv and candidate fragment binder, after immobilizing anti-GST polyclonal antibody was immobilized on CM5 sensor chip as described above, then 5 µg/ml GST-HRAS-GTPγS protein was injected at 5 µl/min for 900 s to flow cells Fc2 and 4 and 5 µg/ml GST-HRAS-GDP to Fc3. Following GST-HRAS capture on the flow cells, 5 µg/ml anti-RAS scFv Y6-204 was injected at 5 µl/min for 900 s only to Fc4 until reaching an additional 1500–1800 RU, which is theoretically when all GST-HRAS-GTPγS should be bound to anti-RAS scFv with 1:1 interaction stoichiometry. After completing anti-RAS scFv injection, the sensograms were confirmed to be stable (i.e. anti-RAS scFv was not dissociated from GST-HRAS-GTPγS on Fc4). […]

GST-HRAS^G12V-GDP = target: T3, GST-HRAS^G12V-GDP (Homo sapiens, UniProt P01112, G12V); test: SPR binding to GDP-bound HRAS; conditions: 3 to 2000 μM range
T3 construct: expression of HRAS (1-166) HRAS^G12V or KRAS^G12V cDNA cloned into the pGEX-2T vector; made in house; host or cells: E. coli C41(DE3)
Procedure: (§11) A BIAcore T100 (GE Healthcare) was used to screen the fragment library for RAS binders. A polyclonal goat anti-GST antibody (GE Healthcare) was immobilized on a CM5 sensor chip (GE Healthcare) by the amine coupling method. To immobilize the antibody on CM5 chip, the chip was first activated by injecting 100 µl mixture of 0.2 M EDC (N-ethyl-N-(dimethylaminopropyl) carbodiimide hydrochloride) and 0.05 M NHS (N-hydroxysuccinimide) at 10 µl/min flow rate. Furthermore, 100 µg/ml anti-GST antibody in 10 mM sodium acetate, pH 5.0 was injected at 5 µl/min for 900 s and immobilized until 20,000 ~ 25,000 RU. After immobilization the chip was immediately inactivated by injecting 1 M ethanolamine, pH 8.5 at 10 µl/min for 600 s. The chip was kept running in the HBS buffer (GE Healthcare) comprising 10 mM HEPES, pH 8.0, 150 mM NaCl. Of all, 5 µg/ml recombinant GST, GST-HRAS^G12V-GTPγS or GST-HRAS^G12V-GDP proteins were injected into flow cell Fc4, Fc2 and Fc3, respectively for trapping through the immobilized anti-GST antibody. The GST-HRAS^G12V-GTPγS, GST-KRAS^G12V-GppNHpp, or GST-HRAS^G12V-GDP proteins were injected at 5 µl/min for 900 s and usually reached approximately 2000–2500 RU. […]

GST-HRAS^G12V-GTPγS = target: T4, GST-HRAS^G12V-GTPγS (Homo sapiens, UniProt P01112, G12V); test: SPR binding to immobilized GST-HRAS G12V-GTPγS
T4 construct: expression of HRAS (1-166) HRAS^G12V or KRAS^G12V cDNA cloned into the pGEX-2T vector; made in house; host or cells: E. coli C41(DE3)
Procedure: as §11
The corresponding kinetic […], were determined using steady-state analysis of the compounds’ binding affinities, assuming 1:1 ligand-protein stoichiometry. […]

Solubility = assay type: physicochemical

Compound: CN(C)CCOc1ccc(C(=O)NCC2COc3ccccc3O2)cc1 (centres unmarked) [Abd-4]
effect on cell viability (HT1080 cells (NRAS^Q61K)): no effect on cell viability
effect on cell viability (DLD-1 cells (KRAS^G13D)): no effect on cell viability
activity in the RAS biosensor BRET assay (RAS-effector PPI): do not show activity

Compound: O=C(Nc1ccc2ccccc2n1)c1ccco1 [Abd-1, N-(2-quinolinyl)-2-furamide]
binding to HRAS^G12V in complex with anti-RAS scFv (cSPR) [1]: no binding
binding to GDP-bound form of HRAS (SPR) (GST-HRAS^G12V-GDP): no binding
binding to GST-HRAS^G12V-GTPγS (SPR dose response) (GST-HRAS^G12V-GTPγS; 3 to 2000 μM range): bound and bind
Kd (GST-HRAS^G12V-GTPγS; SPR, estimated, single experimental analysis): > 370 µM
solubility (Solubility): 140 µM (≈ 33.4 µg/mL)

Compound: O=C(NC[C@H]1COc2ccccc2O1)c1ccco1 [Abd-2a]
binding to KRAS^G12V-GppNHp (SPR) (KRAS^G12V-GppNHp): bind

Other lines, results leading:

binding to KRAS^G12V-GppNHp (SPR) (KRAS^G12V-GppNHp): lower affinity than Abd-2
Compound: NCC1COc2cc(Cl)ccc2O1 (centres unmarked) [Abd-3]

binding to KRAS^G12V-GppNHp (SPR) (KRAS^G12V-GppNHp): bind
Compound: O=C(NC[C@@H]1COc2ccccc2O1)c1ccco1 [Abd-2b]

Source: publication PMC6085350, “Small molecule inhibitors of RAS-effector protein interactions derived using an intracellular antibody fragment” (Nature Communications, 2018)
